{"source": "ChEMBL document CHEMBL3046274", "about": "“Toxicity of imidacloprid to developmental stages of Rhynchophorus ferrugineus (Curculionidae: Coleoptera): Laboratory and field tests” (Crop Prot, 2006)", "format_in_all_cases": "ADME", "key": {"Root [1]": {"test_system": "Root", "assay": "Drug uptake in Phoenix dactylifera (date palm) roots at 2.5 ml/l at 10 days post-treatment by UV spectrophotometric analysis", "conditions": "240 h"}, "Rachis [2]": {"test_system": "Rachis", "assay": "Drug uptake in Phoenix dactylifera (date palm) rachis at 2.5 ml/l at 10 days post-treatment by UV spectrophotometric analysis", "conditions": "240 h"}, "Leaf base [3]": {"test_system": "Leaf base", "assay": "Drug uptake in Phoenix dactylifera (date palm) leaf base at 2.5 ml/l at 20 days post-treatment by UV spectrophotometric analysis", "conditions": "480 h"}, "Pinnae [4]": {"test_system": "Pinnae", "assay": "Drug uptake in Phoenix dactylifera (date palm) pinnae at 2.5 ml/l at 10 days post-treatment by UV spectrophotometric analysis", "conditions": "240 h"}, "Leaf base [5]": {"test_system": "Leaf base", "assay": "Drug uptake in Phoenix dactylifera (date palm) leaf base at 2.5 ml/l at 10 days post-treatment by UV spectrophotometric analysis", "conditions": "240 h"}, "Gomar [6]": {"test_system": "Gomar", "assay": "Drug uptake in Phoenix dactylifera (date palm) gomar at 2.5 ml/l at 20 days post-treatment by UV spectrophotometric analysis", "conditions": "480 h"}, "Gomar [7]": {"test_system": "Gomar", "assay": "Drug uptake in Phoenix dactylifera (date palm) gomar at 2.5 ml/l at 10 days post-treatment by UV spectrophotometric analysis", "conditions": "240 h"}, "Rachis [8]": {"test_system": "Rachis", "assay": "Drug uptake in Phoenix dactylifera (date palm) rachis at 2.5 ml/l at 20 days post-treatment by UV spectrophotometric analysis", "conditions": "480 h"}, "Pinnae [9]": {"test_system": "Pinnae", "assay": "Drug uptake in Phoenix dactylifera (date palm) pinnae at 2.5 ml/l at 20 days post-treatment by UV spectrophotometric analysis", "conditions": "480 h"}, "Root [10]": {"test_system": "Root", "assay": "Drug uptake in Phoenix dactylifera (date palm) roots at 2.5 ml/l at 20 days post-treatment by UV spectrophotometric analysis", "conditions": "480 h"}}, "data": [{"smiles": "O=[N+]([O-])NC1=NCCN1Cc1ccc(Cl)nc1", "note": "[IMIDACLOPRID]", "values": [{"measurement": "Drug uptake", "setting": "Root [1]", "result": 0.41, "unit": "ppm"}, {"measurement": "Drug uptake", "setting": "Rachis [2]", "result": 1.31, "unit": "ppm"}, {"measurement": "Drug uptake", "setting": "Leaf base [3]", "result": 0.38, "unit": "ppm"}, {"measurement": "Drug uptake", "setting": "Pinnae [4]", "result": 0.32, "unit": "ppm"}, {"measurement": "Drug uptake", "setting": "Leaf base [5]", "result": 0.51, "unit": "ppm"}, {"measurement": "Drug uptake", "setting": "Gomar [6]", "result": 0.33, "unit": "ppm"}, {"measurement": "Drug uptake", "setting": "Gomar [7]", "result": 0.46, "unit": "ppm"}, {"measurement": "Drug uptake", "setting": "Rachis [8]", "result": 1.11, "unit": "ppm"}, {"measurement": "Drug uptake", "setting": "Pinnae [9]", "result": 1.21, "unit": "ppm"}, {"measurement": "Drug uptake", "setting": "Root [10]", "result": 0.18, "unit": "ppm"}]}]}
